Reference: the NIST ThermoML archive (doi:10.1021/acs.jced.7b00494)

Assay: mn = molality of the nth substance listed, in mol/kg
Conditions: 99.6 kPa, Liquid; for kinematic viscosity: Capillary tube (Ostwald / Ubbelohde) method; for mass density: Vibrating tube method

CNC(C)=O [N-methylacetamide] + [Ca+2].[Cl-].[Cl-]
Conditions	kinematic viscosity, 308.15 K [m2/s]	kinematic viscosity, 313.15 K [m2/s]	kinematic viscosity, 318.15 K [m2/s]	kinematic viscosity, 323.15 K [m2/s]	kinematic viscosity, 328.15 K [m2/s]	mass density, 308.15 K [kg/m3]	mass density, 313.15 K [kg/m3]	mass density, 318.15 K [kg/m3]	mass density, 323.15 K [kg/m3]	mass density, 328.15 K [kg/m3]
m2 = 0	3.79e-06	3.35e-06	2.99e-06	2.68e-06	2.42e-06	945.85	941.63	937.44	933.24	929.07
m2 = 0.00398	3.81e-06	3.38e-06	3.02e-06	2.69e-06	2.44e-06	946.1	941.91	937.73	933.54	929.34
m2 = 0.01042	3.83e-06	3.41e-06	3.04e-06	2.72e-06	2.46e-06	946.61	942.38	938.2	933.97	929.79
m2 = 0.04232	4.04e-06	3.59e-06	3.19e-06	2.86e-06	2.58e-06	948.77	944.56	940.39	936.24	932.07
m2 = 0.05605	4.13e-06	3.67e-06	3.25e-06	2.92e-06	2.63e-06	949.67	945.49	941.34	937.18	933.03
m2 = 0.08536	4.34e-06	3.83e-06	3.4e-06	3.05e-06	2.74e-06	951.77	947.59	943.45	939.13	934.99
m2 = 0.1022	4.47e-06	3.95e-06	3.49e-06	3.13e-06	2.81e-06	953.01	948.87	944.7	940.52	936.21
m2 = 0.1314	4.7e-06	4.15e-06	3.67e-06	3.28e-06	2.95e-06	954.97	950.79	946.62	942.51	938.24
m2 = 0.1539	4.89e-06	4.31e-06	3.8e-06	3.39e-06	3.05e-06	956.57	952.41	948.18	943.99	939.85
m2 = 0.1613	4.95e-06	4.35e-06	3.85e-06	3.43e-06	3.09e-06	957.09	952.96	948.73	944.54	940.37
m2 = 0.1719	5.03e-06	4.42e-06	3.9e-06	3.48e-06	3.13e-06	957.84	953.69	949.44	945.4	941.17
m2 = 0.1998	5.26e-06	4.63e-06	4.08e-06	3.64e-06	3.27e-06	959.8	955.68	951.58	947.31	943.19
m2 = 0.2219	5.46e-06	4.8e-06	4.24e-06	3.77e-06	3.39e-06	961.27	957.26	953.04	948.77	944.71
m2 = 0.2578	5.79e-06	5.1e-06	4.5e-06	4e-06	3.58e-06	964	959.75	955.68	951.4	947.13
m2 = 0.3546	6.92e-06	6.01e-06	5.32e-06	4.71e-06	4.2e-06	970.82	966.61	962.4	958.22	953.99
